Test results taken from patent publication US20080140036A1, “Antimicrobial Composition” (priority 2004, published 2008).

Key:
Strain T1 MSSA = test: MIC of triclosan (direct contact); assay type: cell-based, S. aureus
[1] = system: S. epidermidis NCTC 11047; test: ZOI of triclosan vapours (vapour phase); assay type: cell-based
MSSA (4) = test: ZOI of triclosan vapours (vapour phase); assay type: cell-based, S. aureus
MSSA (47) = test: ZOI of triclosan vapours (vapour phase); assay type: cell-based, S. aureus
[2] = system: all staphylococcal strains; test: Vapours of triclosan, all strains; assay type: cell-based, Staphylococcus; details: vapour phase
[3] = system: EMRSA m97 271 032 phage group 10; test: MIC of triclosan (direct contact)
MRSA 11 = test: ZOI of triclosan vapours (vapour phase)
MRSA 14 = test: ZOI of triclosan vapours (vapour phase)
MRSA 15 = test: ZOI of triclosan vapours (vapour phase)
[4] = system: EMRSA m97271052 phage group 4; test: ZOI of triclosan vapours (vapour phase)
[5] = system: EMRSA m97 271 047 phage group 8; test: ZOI of triclosan vapours (vapour phase)
[6] = system: EMRSA m97 271 064 phage group 14; test: ZOI of triclosan vapours (vapour phase)
[7] = system: EMRSA g96 138 744 phage group 16; test: ZOI of triclosan vapours (vapour phase)

For `Oc1cc(Cl)ccc1Oc1ccc(Cl)cc1Cl` [triclosan], the MIC (Strain T1 MSSA) was 0.5 Mg ml^−1−, the “ZOI Average” value ([1]; average) was 50.5 mm and the “ZOI 1” value ([1]; replicate 1) was 50 mm. The “ZOI 2” value ([1]; replicate 2) was 51 mm, the “ZOI Average” value (MSSA (4); average) was 51 mm and the “ZOI 1” value (MSSA (4); replicate 1) was 50 mm. The “ZOI 2” value (MSSA (4); replicate 2) was 52 mm, the “ZOI Average” value (MSSA (47); average) was 51.5 mm and the “ZOI 1” value (MSSA (47); replicate 1) was 52 mm. The “ZOI 2” value (MSSA (47); replicate 2) was 51 mm, the “effect of vapours on growth” value [2] was “effective at inhibiting growth of all staphylococcal strains” and the MIC [3] was 0.5 Mg ml^−1−. For the same molecule, the “ZOI Average” value (MRSA 11; average) was 43 mm, the “ZOI 1” value (MRSA 11; replicate 1) was 43 mm and the “ZOI 2” value (MRSA 11; replicate 2) was 43 mm. For the same molecule, the “ZOI Average” value (MRSA 14; average) was 55 mm, the “ZOI 1” value (MRSA 14; replicate 1) was 55 mm and the “ZOI 2” value (MRSA 14; replicate 2) was 55 mm. The “ZOI Average” value (MRSA 15; average) was 50 mm, the “ZOI 1” value (MRSA 15; replicate 1) was 50 mm and the “ZOI 2” value (MRSA 15; replicate 2) was 50 mm. For the same molecule, the “ZOI Average” value ([4]; average) was 50 mm, the “ZOI 1” value ([4]; replicate 1) was 50 mm and the “ZOI 2” value ([4]; replicate 2) was 50 mm. The “ZOI Average” value ([5]; average) was 52 mm, the “ZOI 1” value ([5]; replicate 1) was 52 mm and the “ZOI 2” value ([5]; replicate 2) was 52 mm. The “ZOI Average” value ([6]; average) was 35 mm, the “ZOI 1” value ([6]; replicate 1) was 35 mm and the “ZOI 2” value ([6]; replicate 2) was 35 mm. For the same molecule, the “ZOI Average” value ([7]; average) was 50 mm, the “ZOI 1” value ([7]; replicate 1) was 50 mm and the “ZOI 2” value ([7]; replicate 2) was 50 mm.
